Measured values from article PMC6321145 (Molecules, 2018).

Assays:
Aβ1–42 [1] = target: T1, Aβ1–42 (Homo sapiens, UniProt P05067); test: Inhibition of Cu^2+-induced Aβ1–42 aggregation (ThT-binding assay); assay type: biochemical; conditions: [Aβ] = 20 μM, [Cu^2+] = 20 μM, [compound] = 40 μM; 37 °C, 24 h
T1 construct: Aβ1–42 (Sigma, St. Louis, MO, USA; counterion, NaOH) stock solution was prepared by dissolving Aβ1–42 peptide in ammonium hydroxide; purchased Sigma
Procedure: To investigate the ability of compound 6b1 to inhibit Cu^2+-induced Aβ1–42 aggregation, the ThT-binding assay was performed.
Aβ was diluted in […] (pH 6.6) with […]. The mixture of the peptide (10 μL, 20 μM, final concentration) with or without copper (10 μL, 20 μM, final concentration) and the test compound (10 μL, 40 μM, final concentration) was incubated at 37 °C for 24 h. The 30 μL of the sample was diluted to a final volume of 200 μL with 50 mM glycine-NaOH buffer (pH 8.0) containing thioflavin T (5 μM). The detection method was the same as that of self-induced Aβ aggregation experiment.

Aβ1–42 [2] = target: T1, Aβ1–42; test: Inhibition of self-induced Aβ1–42 aggregation (ThT fluorescence assay); assay type: biochemical; conditions: for inhibition at 20 µM: inhibitor 20 μM, Aβ1–42 50 μM, ThT, 37 °C, 72 h, mean ± SD
Procedure: The formation and aggregation of Aβ1–42 in the brain leads to neurotoxicity in AD. In order to evaluate the activity of our new synthetic compounds to inhibit Aβ1–42 self-induced aggregation, the thioflavin (ThT) fluorescence assay was performed.
All ThT experiments were performed according to our previously published methods. Aβ1–42 (Sigma, St. Louis, MO, USA; counterion, NaOH) stock solution was prepared by dissolving Aβ1–42 peptide in ammonium hydroxide (1% v/v), and diluting with 20 mM phosphate buffer (pH 7.4) to 100 μM. The tested compounds were firstly dissolved in DMSO at a concentration of 10 mM, and then diluted with 20 mM phosphate buffer (pH 7.4) to 40 μM.
For the inhibition of self-induced Aβ1–42 aggregation. Aβ1–42 peptide (2 μL, 50 μM, final concentration) with the tested compound (2 μL, 20 μM, final concentration) or 20 mM phosphate buffer (2 μL) was incubated in 20 mM phosphate buffer (pH 7.4) at 37 °C for 72 h. After incubation, the samples were diluted to a final volume of 36 μL with 50 mM glycine-NaOH buffer (pH 8.5) containing 5 μM Thioflavin T. Fluorescence signal was measured (excitation wavelength 450 nm, emission wavelength 485 nm, and slit widths set to 5 nm) on a monochromator-based multimode microplate reader ([…] M1000, TECAN, Hombrechtikon, Switzerland), adapted for 384-well microtiter plates. […] Each compound was examined in triplicate.

[3] = Oxygen radical absorbance capacity with fluorescein (ORAC-FL) assay
Procedure: Oxidative stress is another crucial event in AD pathogenesis. In order to determine antioxidant activities of our synthetic compounds, the oxygen radical absorbance capacity method with fluorescein (ORAC-FL) assay was performed. with Trolox (6-hydroxy-2,5,7,8-tetramethylchroman-2-carboxylic acid) as the standard, and their antioxidant activity was expressed as Trolox equivalents.
The antioxidant activities of the compounds in vitro were determined by the oxygen radical absorbance capacity fluorescein (ORAC-FL) assay. The tested compounds and (±)-6-hydroxy-2,5,7,8-tetramethylchroman-2-carboxylic acid (Trolox) were dissolved in DMSO at a concentration of 10 mM, and then diluted with 75 mM potassium phosphate buffer (pH 7.4) to 50 μM and 10 μM for use. The fluorescein (FL) stock solution (3.4 mM) was diluted with the same buffer to 136 nM. All the assays were conducted with 75 mM potassium phosphate bufffer (pH 7.4), and the final reaction mixture was 200 μL.
The mixture of compounds (or buffer) (20 μL) and fluorescein (FL, 120 μL) were incubated for 15 min at 37 °C in a black 96-well plate. Then 2,2′-azobis-(amidino-propane)-dihydrochloride (AAPH) solution (60 μL, 40 mM) was rapidly added to the reaction mixture. The fluorescence was recorded every 5 min for 240 min at 485 nm (excitation wavelength) and 535 nm (emission wavelength) (Varioskan Flash Multimode Reader, Thermo Scientific, Waltham, MA, USA), and each sample was prepared and measured for three times independently. […] The net AUC for a sample was calculated using the expression net AUC = AUCsample − AUCblank, The ORAC-FL value of each sample was calculated using the equation of net AUCsample/(AUCTrolox – AUCblank), which was expressed as Trolox equivalents.

SH-SY5Y cells = test: Cellular ROS detection (DCFH-DA) in SH-SY5Y cells treated with t-BuOOH; assay type: cell-based, human; conditions: compound 2.5 μM; 0.1 mM t-BuOOH; compared with Trolox
Procedure: To further investigate their antioxidant activity in SH-SY5Y cells, cellular ROS detection assay based on dichlorofluorescein diacetate (DCFH-DA) was performed. with Trolox and N-acetyl-L-cysteine (NAC) as reference compounds.
SH-SY5Y cells were maintained in Dulbecco’s modified Eagle’s medium (DEME) and supplemented with 1 mM glutamine, 10% fetal calf serum, 100 U/mL penicillin, and 100 μg/mL streptomycin. The cultures were maintained at 37 °C in a humidified incubator containing 5% CO2 and were passaged twice weekly.
The antioxidant activity of the compounds in SH-SY5Y cells were tested with the fluorescent probe (2′,7′-dichlorofluorescein diacetate, DCFH-DA) as reported with some variation. SH-SY5Y cells were sub-cultured in 96-well plates at a seeding density of 1 × 10^4 cells per well for 24 h, then the medium was removed, the tested compounds (2.5 μM) was added and incubated for another 24 h at 37 °C. After that, the cells were washed with PBS and incubated with 5 μM DCFH-DA in PBS at 37 °C in 5% CO2 for 30 min. Then DCFH-DA was removed, the cells were washed three times and incubated with 0.1 mM t-BuOOH in PBS for 30 min. After the incubation, the cell fluorescence from each well was measured at 485 nm excitation and 535 nm emission with a monochromator based multimode microplate reader ([…] M1000).

[4] = Cytotoxicity on SH-SY5Y cells (MTT); assay type: cell-based, human; conditions: human, SH-SY5Y neuroblastoma cells; MTT, 24 h; mean ± SEM of three measurements
Procedure: The cytotoxicity of our synthesized compounds was examined in human neuroblastoma SH-SY5Y cells. The cell viability was determined by using methyl thiazolyl tetrazolium (MTT) colorimetry, the cells were treated with different concentrations of compounds (0–100 μM). The result is shown in the Supplementary Materials (Table S1).
The cytotoxicities of the compounds were evaluated using the MTT assay. SH-SY5Y cells were subcultured in 96-well plates at a seeding density of 1 × 10^4 cells per well. After 24 h, the medium was removed and treated with different concentrations of tested compounds for 24 h at 37 °C. The survival of cells was determined with MTT assay. Then 80 μL of medium and 20 μL of MTT (0.5 mg/mL, final concentration) were added to each well and incubated for another 4 h. After the removal of MTT, the formazan crystals were dissolved in DMSO. The amount of formazan was measured using a microculture plate reader at the wavelength of 570 nm. Each concentration was performed in triplicate.

Aβ1–42 fibrils = target: T2, Aβ1–42 fibrils (Homo sapiens, UniProt P05067); test: TEM assay of Aβ1–42 fibrils; assay type: biochemical; conditions: compound 20 μM; 37 °C, 24 h
T2 construct: Aβ1–42 (Sigma, St. Louis, MO, USA; counterion, NaOH) stock solution was prepared by dissolving Aβ1–42 peptide in ammonium hydroxide; purchased Sigma
T2 sequence (P05067 672-713): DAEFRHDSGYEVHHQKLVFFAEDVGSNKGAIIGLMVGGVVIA
Procedure: To further complement the ThT binding assay, A transmission electron microscopy (TEM) assay was employed to monitor and clarify the effect of compound 6b1 on Aβ1−42 aggregation.
The ability of compound 6b1 to disaggregate self-induced Aβ1–42 aggregation fibrils was also investigated. Aβ1–42 fibrils were prepared by incubating fresh Aβ1–42 for 24 h at 37 °C, and the test compound was added to the sample and incubated for another 24 h at 37 °C. Then the sample was analyzed by ThT binding assay and TEM assay.
Aβ1–42 peptide (Sigma) was dissolved in 20 mM phosphate buffer (pH 7.4) at 4 °C to 100 μM before use.
Aβ1–42 was incubated at 37 °C for 24 h. Then, 40 μM tested compound was added and incubated at 37 °C for another 24 h. The final concentrations of Aβ1–42 and the compounds were 50 μM and 20 μM, respectively. After incubation, aliquots (5 μL) of the samples were placed on a carbon-coated copper/rhodium grid for 2 min at room temperature. Each grid was stained with uranyl acetate (1%, 5 μL) for 2 min. Excess staining solution was removed and the specimen was transferred for imaging with transmission electron microscopy (JEOL JEM-1400, Tokyo, Japan).

T1 sequence (P05067 672-713): as above

Row | Compound | Inhibition of Cu^2+-induced Aβ aggregation (Aβ1–42 [1]) [%] | IC50 (Aβ1–42 [2]; ThT fluorescence method, mean ± SD of three experiments, read-out: IC50 against self-induced Aβ1–42 aggregation) [µM] | inhibition at 20 µM (Aβ1–42 [2]) [%] | ORAC ([3]; compound 1 μM) | Antioxidant activity in SH-SY5Y cells (ROS generation, DCFH-DA fluorescence) (SH-SY5Y cells) | IC50 at 24 h [4] [µM] | melting point [°C] | ORAC ([3]; compound 5 μM) | TEM: Aβ1–42 fibril formation in presence of compound (Aβ1–42 fibrils)
1 | Oc1c(I)cc(Cl)c2cccnc12 [CQ, clioquinol] | 83.6 | – | – | – | – | – | – | – | –
2 | CCN(CC)CCCNc1cc(/C=C/c2ccc(N(CC)CC)cc2)nc2ccccc12 [Compound 6a1, (E)-N^1-(2-(4-(Diethylamino)styryl)quinolin-4-yl)-N^3,N^3-diethylpropane-1,3-diamine] | – | 7.8 ± 0.4 | 90.2 ± 1.3 | 5.92 ± 0.03 μmol of Trolox equivalents/μmol of tested compounds | more antioxidant activity than Trolox | 189 | 182.3 to 184 | – | –
3 | CCN(CC)CCCNc1cc(/C=C/c2ccc(N3CCOCC3)cc2)nc2ccccc12 [Compound 6a4, (E)-N^1,N^1-Diethyl-N^3-(2-(4-morpholinostyryl)quinolin-4-yl)propane-1,3-diamine] | – | – | 87.9 ± 1.1 | 4.16 ± 0.04 μmol of Trolox equivalents/μmol of tested compounds | a little weaker antioxidant activity than Trolox | 145.2 ± 0.9 | 172.5 to 174.3 | 4.52 ± 0.03 μmol of Trolox equivalents/μmol of tested compounds | –
4 | CN(C)CCCNc1cc(/C=C/c2c[nH]c3ccccc23)nc2ccccc12 [Compound 6b3, (E)-N^1-(2-(2-(1H-Indol-3-yl)vinyl)quinolin-4-yl)-N^3,N^3-dimethylpropane-1,3-diamine] | – | – | 87.2 ± 2.1 | 3.96 ± 0.08 μmol of Trolox equivalents/μmol of tested compounds | a little weaker antioxidant activity than Trolox | 168.1 ± 0.2 | 168.2 to 169.5 | 4.21 ± 0.08 μmol of Trolox equivalents/μmol of tested compounds | –
5 | CCN(CC)c1ccc(/C=C/c2cc(NCC(C)C)c3ccccc3n2)cc1 [Compound 6e1, (E)-2-(4-(Diethylamino)styryl)-N-isobutylquinolin-4-amine] | – | – | 77.9 ± 1.3 | 1.71 ± 0.05 μmol of Trolox equivalents/μmol of tested compounds | – | 143.6 ± 0.7 | 170.2 to 171.7 | 1.92 ± 0.11 μmol of Trolox equivalents/μmol of tested compounds | –
6 | CC(C)CNc1cc(/C=C/c2ccc(N(C)C)cc2)nc2ccccc12 [Compound 6e2, (E)-2-(4-(Dimethylamino)styryl)-N-isobutylquinolin-4-amine] | – | – | 77.5 ± 1.5 | 1.68 ± 0.06 μmol of Trolox equivalents/μmol of tested compounds | – | 141.9 ± 0.5 | 171.8 to 173.2 | 1.78 ± 0.05 μmol of Trolox equivalents/μmol of tested compounds | –
7 | CC(=O)N[C@@H](CS)C(=O)O [NAC, N-acetyl-L-cysteine, reference compound] | – | – | – | – | didn’t remove ROS generation | – | – | – | –
8 | Oc1ccc(/C=C/c2cc(O)cc(O)c2)cc1 [Res, resveratrol, reference compound] | 71.2 | – | 77.2 ± 1.1 | – | – | – | – | – | a few thick fibrils
9 | Cc1c(C)c2c(c(C)c1O)CCC(C)(C(=O)O)O2 (stereo not shown) [Trolox, 6-hydroxy-2,5,7,8-tetramethylchroman-2-carboxylic acid, reference compound] | – | – | – | – | decrease the intensity of fluorescence | – | – | – | –
